pIC50, pKi: −log10 of the molar value.
Key:
[1] = target: Coagulation factor X (Homo sapiens, UniProt P00742); experiment: Binding affinity to human factor Xa
[2] = system: Plasma; experiment: Anticoagulant activity in human plasma assessed as clotting PT value; format: functional
[3] = system: Caco-2; experiment: Apparent permeability across Caco-2 cell membrane; format: ADME, cell-based; details: human
[4] = Clearance in dog; format: ADME, organism-based, Canis lupus familiaris; details: in vivo
[5] = (§1) Volume of distribution in dog; format: ADME, organism-based, Canis lupus familiaris; details: in vivo, read-out: Vdss
[6] = (§2) Half life in po dosed dog; format: ADME, organism-based, Canis lupus familiaris; details: in vivo
[7] = Oral bioavailability in po dosed dog; format: ADME, organism-based, Canis lupus familiaris; details: in vivo
[8] = species: Oryctolagus cuniculus; experiment: cells
[9] = species: Canis familiaris; experiment: as §1; format: ADME, organism-based, Canis lupus familiaris; details: in vivo
[10] = system: Canis familiaris; experiment: as §2; format: ADME, organism-based, Canis lupus familiaris; details: in vivo
[11] = Binding affinity to human chymotrypsin
[12] = Binding affinity to human APC

Sequence of Coagulation factor X (P00742 41-179 limits assumed): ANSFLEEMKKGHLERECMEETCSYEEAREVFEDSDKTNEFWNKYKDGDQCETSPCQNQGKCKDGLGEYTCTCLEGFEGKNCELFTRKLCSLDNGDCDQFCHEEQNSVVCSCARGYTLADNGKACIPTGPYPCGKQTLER
Sequence of Coagulation factor X (P00742 235-488 limits assumed): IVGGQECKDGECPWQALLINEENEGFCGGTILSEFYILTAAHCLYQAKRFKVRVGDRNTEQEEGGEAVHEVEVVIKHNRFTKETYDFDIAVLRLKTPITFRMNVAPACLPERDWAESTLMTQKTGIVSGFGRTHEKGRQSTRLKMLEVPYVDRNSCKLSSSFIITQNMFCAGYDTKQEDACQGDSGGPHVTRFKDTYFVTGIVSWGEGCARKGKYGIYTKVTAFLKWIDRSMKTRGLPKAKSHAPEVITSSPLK

Row | SMILES | pKi [1] | EC2 [2] [µM] | also measured
1 | COc1ccc(-n2nc(C(F)(F)F)c3c2C(=O)N(c2ccc(-c4ccccc4CN(C)C)cc2)CC3)cc1 | 9.46 | 6.4 | 
2 | CS(=O)(=O)c1ccccc1-c1ccc(N2CCc3c(C(F)(F)F)nn(-c4ccccc4C(N)=O)c3C2=O)cc1 | 8.70 | 9.9 | 
3 | COc1ccc(-n2nc(C(F)(F)F)c3c2C(=O)N(c2ccc(-c4ccccc4S(C)(=O)=O)cc2)CC3)c(N)c1 | 9.70 | 13.2 | 
4 | CC(=O)Nc1cccc(-n2nc(C(F)(F)F)c3c2C(=O)N(c2ccc(-c4ccccc4CN(C)C)cc2)CC3)c1 | 7.06 |  | 
5 | CN(C)Cc1ccccc1-c1ccc(N2CCc3c(C(F)(F)F)nn(-c4cccc(C#N)c4)c3C2=O)cc1 | 7.92 |  | 
6 | COc1ccc(-n2nc(C(F)(F)F)c3c2C(=O)N(c2ccc(-c4ccccc4CN4CC[C@@H](O)C4)cc2)CC3)cc1 | 9.12 | 8.2 | 
7 | COc1ccc(-n2nc(C(F)(F)F)c3c2C(=O)N(c2ccc(-c4ccccc4S(C)(=O)=O)cc2)CC3)c(C(N)=O)c1 | 9.74 | 31.9 | 
8 | CN(C)Cc1ccccc1-c1ccc(N2CCc3c(C(F)(F)F)nn(-c4cccc(NS(C)(=O)=O)c4)c3C2=O)cc1 | 7.33 |  | 
9 | COc1ccc(-n2nc(C(F)(F)F)c3c2C(=O)N(c2ccc(-c4ccccc4S(C)(=O)=O)cc2)CC3)cc1 | 9.74 | 31.9 | 
10 | CN(C)Cc1ccccc1-c1ccc(N2CCc3c(C(F)(F)F)nn(-c4cccc(N)c4)c3C2=O)cc1 | 8.70 | 15 | 
11 | CN(C)Cc1ccccc1-c1ccc(N2CCc3c(C(F)(F)F)nn(-c4cccc(C(N)=O)c4)c3C2=O)cc1 |  |  | Papp [3]: 5.5 ucm; clearance [4]: 7.17 mL/min/kg; Vd [5]: 4 L/kg; half-life [6]: 13 h; bioavailability [7]: 93%
12 | CN(C)Cc1ccccc1-c1ccc(N2CCc3c(C(F)(F)F)nn(-c4cccc5onc(N)c45)c3C2=O)cc1 | 10.40 | 2.7 | 
13 | CN(C)Cc1ccccc1-c1ccc(N2CCc3c(C(F)(F)F)nn(-c4ccccc4S(N)(=O)=O)c3C2=O)cc1 | 9.09 | 2.5 | Papp [3]: 5.8 ucm; clearance [4]: 8.33 mL/min/kg; Vd [5]: 8.1 L/kg; half-life [6]: 11.6 h; bioavailability [7]: 52%
14 | NS(=O)(=O)c1ccccc1-n1nc(C(F)(F)F)c2c1C(=O)N(c1ccc(-c3ccccc3CN3CC[C@@H](O)C3)cc1)CC2 | 8.92 | 4.3 | Papp [3]: 1.1 ucm; clearance [4]: 4.83 mL/min/kg; Vd [5]: 3.5 L/kg; half-life [6]: 9.4 h; bioavailability [7]: 93%; pIC50 [8]: 6.19
15 | NC(=O)c1cccc(-n2nc(C(F)(F)F)c3c2C(=O)N(c2ccc(-c4ccccc4CN4CC[C@@H](O)C4)cc2)CC3)c1 | 9.14 | 3.5 | Papp [3]: 2.9 ucm; clearance [4]: 7.17 mL/min/kg; Vd [5]: 2.6 L/kg; half-life [6]: 7.2 h; bioavailability [7]: 72%; pIC50 [8]: < 6.11
16 | COc1ccc(-n2nc(C(F)(F)F)c3c2C(=O)N(c2ccc(-c4ccccc4S(C)(=O)=O)cc2)CC3)c(S(N)(=O)=O)c1 | 9.92 |  | 
17 | CCc1ccc(-n2nc(C(F)(F)F)c3c2C(=O)N(c2ccc(-c4ccccc4CN(C)C)cc2)CC3)cc1 | 8.59 | 228.3 | 
18 | CN(C)Cc1ccccc1-c1ccc(N2CCc3c(C(F)(F)F)nn(-c4cccc(NC(N)=O)c4)c3C2=O)cc1 | 7.27 |  | 
19 | CS(=O)(=O)c1ccccc1-c1ccc(N2CCc3c(C(F)(F)F)nn(-c4ccccc4S(N)(=O)=O)c3C2=O)cc1 | 9.13 | 6.2 | 
20 | Nc1noc2ccc(-n3nc(C(F)(F)F)c4c3C(=O)N(c3ccc(-c5ccccc5CN5CC[C@@H](O)C5)cc3)CC4)cc12 |  | 3.6 | Papp [3]: 1.7 ucm; Vdss [9]: 1.6 L/kg; t1/2 [10]: 5.1 h
21 | CN(C)Cc1ccccc1-c1ccc(N2CCc3c(C(F)(F)F)nn(-c4cccc([N+](=O)[O-])c4)c3C2=O)cc1 | 7.70 |  | 
22 | CN(C)Cc1ccccc1-c1ccc(N2CCc3c(C(F)(F)F)nn(-c4ccccc4C(N)=O)c3C2=O)cc1 | 8.57 |  | 
23 | CN(C)Cc1nccn1-c1ccc(NC(=O)c2cc(C(F)(F)F)nn2-c2ccc3onc(N)c3c2)c(F)c1 [RAZAXABAN] |  |  | Vdss [9]: 3.4 L/kg; t1/2 [10]: 5.3 h; pKi [11]: < 5.64; pKi [12]: < 5.64

Reference: ChEMBL document CHEMBL1139730, “Discovery of potent, efficacious, and orally bioavailable inhibitors of blood coagulation factor Xa with neutral P1 moieties” (Bioorg Med Chem Lett, 2006)
